Patent US7659404B2, “Broad spectrum 2-(substituted-amino)-benzothiazole sulfonamide HIV protease inhibitors” (Tibotec Pharmaceuticals Ltd., priority 2001, dated 2010)
pEC50: −log10 of the molar value. Read-outs that look alike come from different tables or passages of the source.

Assays:
[1] = Pharmacokinetics after oral dosing in rats (LC-MS); format: in vivo, Whistar rats; details: for concentration at 3 h / Cmax: Wistar, blood, 10 mg/kg, or, rat, 10 mpk, DMSO; for concentration at 3 h: oral, read-out: C3hours; for Cmax: po
Protocol: (§1) The pharmacokinetic properties of compounds 20, 88 and 90 were tested on rats and dogs. The compounds were evaluated in Whistar rats, source Iffa Credo, weighing approximately 350 g. Before dosing the animals were fasted overnight (approximately 12 h fasting period). The compounds were dissolved in DMSO. The results represented in the table concern the results from the oral dosing of the compounds. Blood was sampled at 30 min, 1 h, 2 h, 3 h, no pre-dose sample was taken. The amount of the compound in the biological sample was determined using LC-MS. In the table below “or” means oral dosing, “mpk” means mg per kilogram.

[2] = system: virus strain F (R13025); assay: microbe, parasite or virus in culture; format: cell-based, HIV; details: FR=EC50(mutant strain)/EC50(HIV-1 strain LAI); strain F
Procedure, shortened: (§2)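 MT4 cells, HIV- or mock-infected, were cultured five days with a range of inhibitor concentrations, and viability was then read by MTT conversion to formazan (isopropanol-solubilized, A540 nm). EC50/EC90 are the concentrations protecting 50%/90% of infected cells from viral cytopathic effect. Fold resistance = EC50(mutant strain)/EC50(HIV-1 LAI).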

[3] = system: virus strain S (R13080); assay: microbe, parasite or virus in culture; format: cell-based, HIV; details: FR=EC50(mutant strain)/EC50(HIV-1 strain LAI); strain S
Procedure, shortened: as §2

[4] = system: clinically isolated HIV strain I; format: cell-based; details: FR=EC50(mutant strain)/EC50(HIV-1 strain LAI)
Procedure, shortened: as §2

[5] = system: clinically isolated HIV strain J; format: cell-based; details: FR=EC50(mutant strain)/EC50(HIV-1 strain LAI)
Procedure, shortened: as §2

[6] = system: clinically isolated HIV strain O; format: cell-based; details: FR=EC50(mutant strain)/EC50(HIV-1 strain LAI)
Procedure, shortened: as §2

[7] = system: clinically isolated HIV strain T; format: cell-based; details: FR=EC50(mutant strain)/EC50(HIV-1 strain LAI)
Procedure, shortened: as §2

[8] = system: clinically isolated HIV strain H; format: cell-based; details: FR=EC50(mutant strain)/EC50(HIV-1 strain LAI)
Procedure, shortened: as §2

[9] = Pharmacokinetics after oral dosing in dogs (LC-MS); format: in vivo; details: blood, 10 mg/kg, or, dog, 10 mpk
Protocol: as §1

[10] = system: HIV-1 strain LAI; assay: Cellular anti-HIV assay in MT4 cells (MTT), wild type laboratory strain; format: cell-based; details: read-out: EC50 value against HIV-1 strain LAI
Protocol: The compounds of the present invention were examined for anti-viral activity in a cellular assay. […] The cellular assay was performed according to the following procedure.
Cellular Assay Experimental Method:
HIV- or mock-infected MT4 cells were incubated for five days in the presence of various concentrations of the inhibitor. At the end of the incubation period, all HIV-infected cells have been killed by the replicating virus in the control cultures in the absence of any inhibitor. Cell viability is measured by measuring the concentration of MTT, a yellow, water soluble tetrazolium dye that is converted to a purple, water insoluble formazan in the mitochondria of living cells only. Upon solubilization of the resulting formazan crystals with isopropanol, the absorbance of the solution is monitored at 540 nm. The values correlate directly to the number of living cells remaining in the culture at the completion of the five day incubation. The inhibitory activity of the compound was monitored on the virus-infected cells and was expressed as EC50 and EC90. These values represent the amount of the compound required to protect 50% and 90%, respectively, of the cells from the cytopathogenic effect of the virus. The toxicity of the compound was measured on the mock-infected cells and was expressed as CC50, which represents the concentration of compound required to inhibit the growth of the cells by 50%. The selectivity index (SI) (ratio CC50/EC50) is an indication of the selectivity of the anti-HIV activity of the inhibitor.

[11] = Human immunodeficiency virus 1, 120 h, MT4 cells, five days, MTT

Compound	concentration at 3 h [1]	Cmax [1]	plasma level ([1]; oral dosing, comment on Table 8 (rats and dogs))	fold resistance (FR), strain F [2]	fold resistance (FR), strain S [3]	fold resistance (FR), strain I [4]	fold resistance (FR), strain J [5]	fold resistance (FR), strain O [6]	fold resistance (FR), strain T [7]	fold resistance (FR), strain H [8]	Cmax ([9]; DMSO)	pEC50 ([10]; Human immunodeficiency virus 1, MT4, 120 h)	Cmax ([9]; (PEG))	pEC50 [10, 11]
CC(C)CN(C[C@@H](O)[C@H](Cc1ccccc1)NC(=O)O[C@H]1CO[C@H]2OCC[C@H]21)S(=O)(=O)c1ccc2nc(NCCN3CCCC3)sc2c1 [Compound 20]	401 ng/mL	1420 ng/mL	high	0.5	0.5	0.4	0.2	0.2	2.6	0.5	713 ng/mL	6.30 to 7.30		
CC(C)CN(C[C@@H](O)[C@H](Cc1ccccc1)NC(=O)O[C@H]1CO[C@H]2OCC[C@H]21)S(=O)(=O)c1ccc2nc(N(C)CCCN(C)C)sc2c1 [Compound 88]	225 ng/mL	254 ng/mL		8.7	26.3								379 ng/mL	> 7.30
CC(C)CN(C[C@@H](O)[C@H](Cc1ccccc1)NC(=O)O[C@H]1CCOC1)S(=O)(=O)c1ccc2nc(NCCN(C)C)sc2c1 [Compound 90]	684 ng/mL	893 ng/mL		28.8	128.8						550 ng/mL			> 7.30
